Reference: patent US8410114B2, “2-pyrazinone derivatives for the treatment of disease or condition in which inhibition of neutrophil elastase activity is beneficial” (AstraZeneca AB, priority 2006, dated 2013)

target: T1, Human Neutrophil Elastase (HNE) (Homo sapiens, UniProt P08246); assay: Human Neutrophil Elastase Quenched-FRET Assay; format: biochemical; conditions: HNE 1.7 nM, substrate MeOSuc-AAPV-AMC 100 μM, 15 min preincubation, 30 min incubation at room temperature; read-out: Inhibition of Human Neutrophil Elastase IC50
T1 construct: Human Neutrophil Elastase (HNE) purified from serum (Calbiochem art. 324681); purchased Calbiochem 324681; host or cells: purified from human material ('serum' in the source)
T1 sequence (P08246 30-247 limits assumed): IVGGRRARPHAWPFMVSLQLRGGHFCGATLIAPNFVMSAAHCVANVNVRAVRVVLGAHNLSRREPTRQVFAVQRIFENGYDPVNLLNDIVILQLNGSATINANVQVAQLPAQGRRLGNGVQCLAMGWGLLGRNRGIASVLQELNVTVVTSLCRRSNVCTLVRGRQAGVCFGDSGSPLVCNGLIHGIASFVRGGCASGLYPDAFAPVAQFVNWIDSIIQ
Method: Human Neutrophil Elastase Quenched-FRET Assay
The assay uses Human Neutrophil Elastase (HNE) purified from serum (Calbiochem art. 324681; Ref. Baugh, R. J. et al., 1976, Biochemistry. 15, 836-841). HNE was stored in 50 mM sodium acetate (NaOAc), 200 mM sodium chloride (NaCl), pH 5.5 with added 30% glycerol at −20° C. The protease substrate used was Elastase Substrate V Fluorogenic, MeOSuc-AAPV-AMC (Calbiochem art. 324740; Ref. Castillo, M. J. et al., 1979, Anal. Biochem. 99, 53-64). The substrate was stored in dimethyl sulphoxide (DMSO) at −20° C. The assay additions were as follows: Test compounds and controls were added to black 96-well flat-bottom plates (Greiner 655076), 1 μL in 100% DMSO, followed by 30 μL HNE in assay buffer with 0.01% Triton (trade mark) X-100 detergent. The assay buffer constitution was: 100 mM Tris(hydroxymethyl)aminomethane (TRIS) (pH 7.5) and 500 mM NaCl. The enzyme and the compounds were incubated at room temperature for 15 minutes. Then 30 μl substrate in assay buffer was added. The assay was incubated for 30 minutes at room temperature. The concentrations of HNE enzyme and substrate during the incubation were 1.7 nM and 100 μM, respectively. The assay was then stopped by adding 60 μl stop solution (140 mM acetic acid, 200 mM sodium monochloroacetate, 60 mM sodium acetate, pH 4.3). Fluorescence was measured on a Wallac 1420 Victor 2 instrument at settings: Excitation 380 nm, Emission 460 nm. IC50 values were determined using Xlfit curve fitting using model 205.

Row | IC50 | SMILES
1 | 0.33 nM | CNC(=O)c1nc(-c2ccnn2-c2ccc(C#N)cc2)c(C)n(-c2cccc(C(F)(F)F)c2)c1=O [Example 1, 6-[2-(4-Cyano-phenyl)-2H-pyrazol-3-yl]-5-methyl-3-oxo-4-(3-trifluoromethyl-phenyl)-3,4-dihydro-pyrazine-2-carboxylic acid methylamide]
2 | 0.32 nM | Cc1c(-c2ccnn2-c2ccc(C#N)cc2)nc(C(=O)NCc2ccc(S(C)(=O)=O)cn2)c(=O)n1-c1cccc(C(F)(F)F)c1 [Example 2, 6-[2-(4-Cyano-phenyl)-2H-pyrazol-3-yl]-5-methyl-3-oxo-4-(3-trifluoromethyl-phenyl)-3,4-dihydro-pyrazine-2-carboxylic acid (5-methanesulfonyl-pyridin-2-ylmethyl)-amide]
3 | 1 nM | Cc1c(-c2ccnn2-c2ccc(C#N)nc2)nc(C(=O)NC2CC2)c(=O)n1-c1cccc(C(F)(F)F)c1 [Example 12, 6-[1-(6-Cyanopyridin-3-yl)-1H-pyrazol-5-yl]-N-cyclopropyl-5-methyl-3-oxo-4-[3-(trifluoromethyl)phenyl]-3,4-dihydropyrazine-2-carboxamide]
4 | 0.61 nM | Cc1c(-c2ccnn2-c2ccc(C#N)cc2)nc(C(=O)NCC(=O)O)c(=O)n1-c1cccc(C(F)(F)F)c1 [Example 16, 2-[[6-[2-(4-Cyanophenyl)pyrazol-3-yl]-5-methyl-3-oxo-4-[3-(trifluoromethyl)phenyl]-3,4-dihydro-pyrazine-2-carbonyl]amino]acetic acid]
